1 compound from paper PMC5339874, “Fluorene-9-bisphenol is anti-oestrogenic and may cause adverse pregnancy outcomes in mice” (Nature Communications, 2017) can be followed below.

In series [1] the target is T1, human oestrogen receptor α (Homo sapiens, UniProt P03372).
T1 construct: expressed in transfected cells; host or cells: JEG-3 human choriocarcinoma cells
T1 sequence (P03372 1-595): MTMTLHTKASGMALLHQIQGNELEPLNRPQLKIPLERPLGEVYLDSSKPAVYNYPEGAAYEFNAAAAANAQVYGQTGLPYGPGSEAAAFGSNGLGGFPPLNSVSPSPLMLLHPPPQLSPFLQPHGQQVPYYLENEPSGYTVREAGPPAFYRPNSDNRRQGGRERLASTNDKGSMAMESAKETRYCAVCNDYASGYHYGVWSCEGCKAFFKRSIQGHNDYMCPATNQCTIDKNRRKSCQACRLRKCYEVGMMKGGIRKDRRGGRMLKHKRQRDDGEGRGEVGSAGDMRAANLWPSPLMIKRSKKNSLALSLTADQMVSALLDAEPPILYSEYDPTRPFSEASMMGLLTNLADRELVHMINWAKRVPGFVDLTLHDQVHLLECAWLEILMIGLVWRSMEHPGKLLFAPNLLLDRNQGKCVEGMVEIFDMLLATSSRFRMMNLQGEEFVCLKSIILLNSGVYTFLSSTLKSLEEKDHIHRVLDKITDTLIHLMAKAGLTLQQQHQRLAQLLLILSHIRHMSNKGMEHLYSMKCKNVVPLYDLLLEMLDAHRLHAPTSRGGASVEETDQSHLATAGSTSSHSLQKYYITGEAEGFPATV
Put plainly: Dual-luciferase reporter assay, full-length ERα and ERE in JEG-3 cells. In kind it is cell-based. The method, then:
Dual-luciferase reporter assays were carried out primarily according to the method described in a previous study. In short, full-length sequences of human oestrogen receptor α and β were amplified by RT-PCR using mRNA from MCF-7 (Supplementary Table 3), and inserted into a pSVSPORT1 (Invitrogen); the resulting constructs were termed pSVhERα and pSVhERβ. A reporter plasmid containing ERE was constructed by inserting four tandem repeats of an ERE of Xenopus laevis vitellogenin A2 into a pGL4.23 vector (Promega), and was termed pGL4-ERE-luc. […] The Renilla LUC control reporter construct pGL4.74-TK was purchased from Promega (Madison, WI). […] The assays were performed in quadruplicate, and the results were expressed as the fold induction of the control after normalization against Renilla luciferase activity. Sigmoidal dose-effect curves were calculated using the GraphPad Prism 4 software. The IC50 values were calculated on the basis of the sigmoidal dose-effect curves. […]

Series [2] can be described thus: Serum BHPF levels in mice after drinking-water exposure (GC–MS). The following applies: for concentration at 10 days: female, CD-1, mouse, serum, oral, 124.35 ng l^−1 in drinking water. In kind it is in vivo. The text has this: In China, college students usually undergo a physical examination before graduation. The volunteers in this study were senior students who were undergoing a physical examination in Beijing. Fifty male and 50 female healthy volunteers (mean age, 23.5±1.2 years) who habitually used plastic water bottles were randomly recruited to participate in this study in June 2015, after appropriate ethical approval was received from the Human Ethics Committee of the Peking University Peoples' Hospital. Each participant provided informed consent and volunteered to give one 10-ml random sample of blood. Fasting blood was collected at Peking University Hospital Medical Center with vacutainer blood collection device (Chengwu Yongkang Medical Products Ltd., China) between 8 and 9 h. […] The blood was collected directly into plain 10-ml glass vacutainer tubes and spun down 30 min later for serum preparation. The serum samples were stored in glass tubes at −80 °C until analysis. The samples were fortified with 5 ng of surrogate standard BHPF-d7, and the pH was adjusted to 6.5 with ammonium acetate. β-Glucuronidase/arylsulfatase (20 μl; Sigma-Aldrich, St Louis, MO) was added to the samples, and they were incubated at 37 °C for 20 h to allow deglucuronidation. […]
Mice with a maximal difference in body weight of 1 g were selected for the experiments and randomly assigned to either the treatment or control groups. […] The BHPF levels in the cooled boiled waters from Bottle A, Bottle B and the stainless steel electric water heater were determined by GC–MS. No BHPF was detected in the cooled boiled water from the stainless steel electric water heater. […] The relative uterine weight was calculated to evaluate the anti-uterotrophic activity. […] The serum BHPF levels were analysed by GC–MS using the same method as that for human serum. The gene expressions of sprr2a and sprr2b in the uteri were determined by Q-RT-PCR.

Each structure is given as a SMILES string. Read-outs that look alike come from different tables or passages of the source.

With `Oc1ccc(C2(c3ccc(O)cc3)c3ccccc3-c3ccccc32)cc1` [BHPF, 9,9-bis(4-hydroxyphenyl)-fluorene], the IC50 in series [1] (coexisted with 1 × 10^−9 M E2, read-out: IC50, anti-oestrogenic activity) was 109 nM; in series [1] (vs 1 nM E2, read-out: IC50 converted to mass concentration (converted)) it was 109 nM. Further, the “serum BHPF” value in series [2] (100 ng l^−1 BHPF group, 10 days) is reported as “no serum BHPF was detected”. The concentration at 10 days in series [2] (serum BHPF level (mean), Bottle A group (124.35 ng l^−1 BHPF in water), after enzymatic hydrolysis) was 1.21 ± 1.11 ng/mL; in series [2] (serum BHPF levels, range, Bottle A group) it was 0.36 to 2.7 ng/mL.
